Several values for one entry are separate records, joined by “and”; a condition that tells them apart may be missing. Equal entries are not always repeated. Where two headings read alike, the source gives them in different places.
Legend:
[1] = Lactone ring stability in whole human blood by HPLC; conditions: for Percent Lactone in Human Blood after 3 Hours of Incubation: pH 7.4, 37° C. (Table 4)
Method: All experiments were conducted at pH 7.4 and 37° C.
(§1) HPLC solvents were from Fisher Scientific.

[2] = PBS solution containing HSA; cited from earlier work
[3] = cited from earlier work
[4] = Lactone ring stability in mouse blood by HPLC; conditions: for Ratio of Lactone Level Mouse/Human: blood, 3 hours of incubation; for Percent Lactone in Mouse Blood after 3 Hours of Incubation: pH 7.4, 37° C.
Method: The hydrolysis kinetics of camptothecins in the presence of different blood components were determined by a quantitative C18 reversed-phase high-performance liquid chromatography (HPLC) assay modified from methodologies described previously in the literature cited above. The preparation of whole blood and fractionated blood samples was carried out as described previously. Crystallized HSA of high purity (>97%) from Sigma Chemical (St. Louis, Mo.) was used. HSA stock solutions were prepared in PBS buffer with a final pH of 7.40±0.05. HSA concentrations were determined by UV absorbance at 278 nm using an extinction coefficient of 39,800 M^−1 cm^−1 (Porter, 1992). All other agents were reagent grade and were used without further purification. High purity water provided by a Milli-Q UV PLUS purification system (Bedford, Mass.) was utilized in all experiments. HPLC solvents were from Fisher Scientific. Human plasma and red blood cells were obtained from Central Kentucky Blood Center. […] Blood from mice was collected in heparinized tubes and stored at 5-10° C. until use.
HPLC assays were performed either on a Waters Alliance 2690 HPLC system equipped with a temperature-controlled autosampler and Waters 474 scanning fluorescence detector. A second HPLC system was composed of a Waters HPLC system composed of 501 HPLC pumps, 717 Plus temperature-controlled autosampler and 470 scanning fluorescence detector. The HPLC assay procedures used for the homosilatecans are summarized below. Solvent A consisted of acetonitrile and Solvent B was 2% triethylammonium acetate, pH 5.5, with a flow rate of 1 ml/min. For DB-38 an isocratic elution was used: 33% Solvent A; 67% Solvent B; λex:345 nm and λem:518 nm. For DB-81 an isocratic elution was used: 56% Solvent A; 44% Solvent B; and λex:375 nm and λem:444 nm. For DB-90 an isocratic elution was used: 41% Solvent A; 59% Solvent B; λex:412 nm and λem:526 nm. For DB-91 an isocratic elution of 42% Solvent A, 58% Solvent B, and λex:392 nm and λem:562 nm.
To determine drug stability in whole blood, whole blood was incubated at 37° C. for 30 min and pH determined. Blood pH was adjusted to 7.4+/−0.5 using either 0.1 M KOH or 0.1 M HCl. Blood samples were incubated at 37° C. for 30 min and pH remeasured to ensure that it is within the range before an individual assay was started. Aliquots of blood (2 ml each) were removed and placed in three disposable glass test tubes and the tubes were incubated at 37° C. […] Incubation at 37° C. was continued and 150 μl aliquots were removed at different time points and added to 600 μl of cold methanol (−20° C.) in an eppendorf tube. The tube was then vortexed for 10 sec and centrifuged in a table top microcentrifuge at 8000 rpm for 45 sec. The Supernatant was removed and placed in an autosampler vial and the vial quickly added to the autosampler maintained at 4° C. The sample was analyzed immediately on the HPLC set-up. The data analysis was as described for the drug in PBS only samples.

[5] = whole human blood; cited from earlier work
[6] = Fluorescence anisotropy titration, equilibrium binding to DMPC small unilamellar vesicles; format: physicochemical; conditions: electroneutral DMPC vesicles, PBS pH 7.4, 37° C.; K values subject to 10% uncertainty
Method: (§2) As a consequence of the brilliant fluorescence emissions from the newly synthesized homosilatecans (a summary of the spectral parameters can be found in Table 1), the lipid bilayer adsorption isotherms summarized in FIG. 4 were relatively free from any background signal. The method of fluorescence anisotropy titration was used to construct the adsorption isotherms. The experiments were conducted at drug concentrations of 1 μM in PBS buffer (37° C.). […] Because of the potential of the lactone ring of the homosilatecans and camptothecins to hydrolyze in PBS, anisotropy values at each lipid concentration were determined immediately (approx. 1 min.) following the addition of the lactone form of each agent to the liposome suspension as to minimize any possibility of conversion to the carboxylate form. Using drug concentrations of 1 μM and long pass filters to isolate emitted light from background signal (that is, scattered exciting light and extraneous fluorescence signal resulting from the possible presence of impurities), signal levels from drugs dissolved in PBS buffer were typically 99.97% in the absence of membrane and greater than 98% in the presence of membrane. Adsorption isotherms were used to determine overall association constants for the homosilatecan, silatecan, and camptothecin drugs. Overall association constants are defined as: K=[AB]/[AF][L] where [AB] represents the concentration of bound drug, [AF] represents the concentration of free drug, and [L] represents the total lipid concentration in the vesicle suspension. This equation is valid when the concentration of free lipid is approximately equal to the concentration of total lipid (that is, the concentration of free lipid is in significant excess over the concentration of bound drug). Provided this condition is satisfied, K may be determined from the inverse of the slope of a double reciprocal plot. In such a double reciprocal plot, 1/fraction of the total drug bound is plotted vs. 1/lipid concentration, with a y-intercept value of 1 (for a system displaying binding site homogeneity). Such double-reciprocal plots for the associations of the new homosilatecans analogs (both lactone and carboxylate forms) with DMPC and DMPG small unilamellar vesicle (SUV) preparations were linear with good correlation coefficients.
(§3) The studies summarized in Table 2 examine the structural basis of homosilatecan associations for lipid bilayers. Two types of membranes were included in these studies which were conducted under near physiological conditions of pH and temperature; these membranes include fluid-phase and electroneutral L-α-dimyristoylphosphatidyl-choline (DMPC); and fluid-phase and negatively-charged L-α-dimyristoylphosphatidylglycerol (DMPG). DMPC and DMPG have identical chain length but the charges on their head groups differ.
(§4) In the studies of Table 2, binding isotherms were constructed using the method of fluorescence anisotropy titration as discussed above, and K values were determined from the slopes of the double-reciprocal plots. The K values are subject to 10% uncertainty. One of the most striking features of the data contained in Table 2 is the strong modulation which can be achieved through the creation of A,B,E-ring modified camptothecins (for example, the homosilatecans known as DB-38, DB-90, and DB-91) or B,E-ring modified camptothecins (for example, the homosilatecan known as DB-81). Homosilatecans containing either a sole substitution at the 7 position or dual substitution at the 7 and 10 positions have been created and found to display very high lipophilicities. Included in Table 2 are camptothecin compounds (topotecan and camptothecin). For DB-81, the lipophilicity for DMPC membranes relative to corresponding value for topotecan increases over 1,400-fold. Data for these agents were included to show the highly lipophilic nature of the new homocamptothecins relative to compounds such as topotecan and camptothecin. […]

[7] = Fluorescence anisotropy titration, equilibrium binding to DMPG small unilamellar vesicles; format: physicochemical; conditions: negatively charged DMPG vesicles, PBS pH 7.4, 37° C.; K values subject to 10% uncertainty
Method: as §2, §3, §4

[8] = Lactone ring stability in PBS by HPLC; format: physicochemical; conditions: PBS pH 7.4, 3 hours, 37° C., 1 μM
Method: FIG. 12 contrasts the improved stabilities of four novel homosilatecans of the present invention with their corresponding silatecan structure containing the α-hydroxylactone functionality. All the experiments of FIG. 12 were conducted in PBS at 37° C.
as §1
To determine the stabilities of homosilatecans in PBS, an aliquot of each of the homosilatecans in DMSO was added to phosphate buffered saline (PBS), pH 7.4 in a HPLC autosampler vial maintained at 37° C. in a water bath to result in final drug concentration of 1 μM. The drug-containing vial was quickly transferred to the autosampler maintained at 37° C. and aliquots analyzed at various time points. All the determinations were done in triplicate. The data was collected and analyzed using Waters Millenium software. The fraction of lactone was calculated using the peak area of lactone and carboxylate peak and using the lactone/carboxylate ratio.

[9] = tested on: MDA-MB-435 tumorigenic metastatic human breast cancer cells; experiment: Cytotoxicity, sulphorrhodamine B (SRB) assay; format: cell-based; conditions: MDA-MB-435, 72 hr exposure, SRB assay, without HSA, read-out: IC50 (w/o HSA)
Method: Cytotoxicity measurements were conducted using MDA-MB-435 tumorigenic human breast cancer cells. The cells were exposed to a range of drug concentrations for 72 hr exposure periods and then viability was assessed using a sulphorrhodamine B (SRB) assay. The SRB measures the total protein levels in the living cells. Proteins from dead cells are lysed and removed in the washing step before TCA fixation. However, it is possible that cells in the early stage of death still have their membrane integrity and therefore retain the protein contents inside. As a result, the optical density at 490 nm can sometimes be overestimated and the cytotoxicity underestimated. […] The SRB assay is now a well regarded assay and was recently approved by NCl as a standard assay for anticancer drug screening. […] Each IC50 value represents the average of three separate trials with each dosage level studied in triplicate.

[10] = biological target: T1, human serum albumin (HSA) (Homo sapiens, UniProt P02768); experiment: Binding of camptothecin lactone and carboxylate forms to human serum albumin, frequency-domain fluorescence lifetime spectroscopy
[11] = previously observed, Burke et al. 1993; cited from earlier work
[12] = biological target: T1, human serum albumin (HSA); conditions: PBS pH 7.4; cited from earlier work
[13] = whole human blood, 3 hours incubation, pH 7.4, 37° C., 1 μM

T1 sequence (P02768 25-609): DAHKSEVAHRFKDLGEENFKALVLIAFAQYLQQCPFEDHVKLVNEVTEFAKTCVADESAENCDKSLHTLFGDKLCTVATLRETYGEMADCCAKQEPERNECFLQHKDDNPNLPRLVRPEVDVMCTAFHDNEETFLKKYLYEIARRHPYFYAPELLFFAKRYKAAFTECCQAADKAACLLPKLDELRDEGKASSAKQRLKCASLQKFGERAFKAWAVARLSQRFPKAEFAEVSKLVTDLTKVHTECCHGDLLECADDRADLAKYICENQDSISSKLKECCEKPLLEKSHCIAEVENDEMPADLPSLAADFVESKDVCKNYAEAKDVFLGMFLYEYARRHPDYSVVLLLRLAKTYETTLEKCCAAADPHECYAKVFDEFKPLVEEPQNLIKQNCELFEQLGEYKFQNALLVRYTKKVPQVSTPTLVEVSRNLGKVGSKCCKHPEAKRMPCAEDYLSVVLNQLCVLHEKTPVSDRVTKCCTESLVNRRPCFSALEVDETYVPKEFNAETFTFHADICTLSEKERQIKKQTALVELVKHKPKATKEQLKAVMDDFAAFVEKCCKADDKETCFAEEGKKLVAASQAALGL

Compound: CC[C@@]1(O)C(=O)OCc2c1cc1n(c2=O)Cc2cc3c(N)cccc3nc2-1 [9-Aminocamptothecin, 9-aminocamptothecin]
- Percent Lactone in Human Blood after 3 Hours of Incubation [1]: 0.4%
- % Lactone [1, 13]: approx. 0.3%
- extent of hydrolysis [2]: > 99%
- percentage of lactone at equilibrium ([3]; human plasma, pH 7.4, 37° C.): 0.2%
- fraction converted to carboxylate ([3]; plasma): > 99.5%
- Ratio of Lactone Level Mouse/Human [4]: 100
- Percent Lactone in Mouse Blood after 3 Hours of Incubation [4]: 38%

Compound: CCc1c2c(nc3ccc(OC(=O)N4CCC(N5CCCCC5)CC4)cc13)-c1cc3c(c(=O)n1C2)COC(=O)[C@]3(O)CC [CPT-11]
- lactone level at equilibrium relative to 9-aminocamptothecin ([1]; whole human blood): approximately 40 fold
- % Lactone [1, 13]: approx. 21.0%
- percentage of lactone at equilibrium [5]: 21.0%

Compound: CC[C@@]1(O)C(=O)OCc2c1cc1n(c2=O)Cc2cc3ccccc3nc2-1 [Camptothecin]
- KDMPC overall association constant [6]: 100 M⁻¹
- KDMPG overall association constant [7]: 100 M⁻¹
- % Lactone [8]: approximately 12%
- Percent Lactone in Human Blood after 3 Hours of Incubation [1]: 7%
- lactone level at equilibrium relative to 9-aminocamptothecin ([1]; whole human blood): approximately 10 fold
- % Lactone [1, 13]: approx. 6%
- IC50 [9]: 0.012 ± 0.004 µM
- HSA binding preference for the carboxylate relative to the lactone [10]: 200 fold
- K, HSA binding of the carboxylate form ([10]; carboxylate form): 1.2e+06 M⁻¹
- K, HSA binding of the lactone form ([10]; lactone form): ≈ 5.5×10^3 M^−1
- decrease in affinity for DMPC upon opening of the lactone ring [11]: 3 fold
- HSA binding affinity of carboxylate form relative to lactone form [12]: 200 fold and > 100 fold
- percentage of lactone at equilibrium ([3]; human plasma, pH 7.4, 37° C.): 0.2%
- t1/2 of lactone ring opening ([3]; human plasma, pH 7.4, 37° C.): 11 min
- t1/2 of lactone ring opening [5]: 22 min
- Ratio of Lactone Level Mouse/Human [4]: 3
- Percent Lactone in Mouse Blood after 3 Hours of Incubation [4]: 20%

Compound: CC[C@@]1(O)C(=O)OCc2c1cc1n(c2=O)Cc2c-1nc1ccc(O)cc1c2[Si](C)(C)C(C)(C)C [DB-67, reference compound]
- KDMPC overall association constant [6]: 2,500 M^−1

Compound: CCC(O)(CC(=O)O)c1cc2n(c(=O)c1CO)Cc1c-2nc2ccc(N)cc2c1[Si](C)(C)C(C)(C)C (stereo not drawn) [DB-90 carboxylate form, carboxylate form of 7-t-butyl-dimethylsilyl-10-aminohomocamptothecin]
- KDMPC overall association constant [6]: 770 M⁻¹
- KDMPG overall association constant [7]: 80 M⁻¹

Compound: CCC(O)(CC(=O)O)c1cc2n(c(=O)c1CO)Cc1c-2nc2ccc(O)cc2c1[Si](C)(C)C(C)(C)C (stereo not drawn) [DB-91 carboxylate form, ring-opened or carboxylate form of 7-t-butyldimethylsilyl-10-hydroxyhomocamptothecin]
- KDMPC overall association constant [6]: 700 M⁻¹
- KDMPG overall association constant [7]: 100 M⁻¹

Compound: CCc1c2c(nc3ccc(O)cc13)-c1cc3c(c(=O)n1C2)COC(=O)[C@]3(O)CC [SN-38, 7-ethyl-10-hydroxycamptothecin]
- KDMPC overall association constant [6]: 300 M⁻¹
- lactone level at equilibrium relative to 9-aminocamptothecin ([1]; whole human blood): approximately 40 fold
- % Lactone [1, 13]: approx. 30%
- percentage of lactone at equilibrium [5]: 19.5%

Compound: CC[C@@]1(O)C(=O)OCc2c1cc1n(c2=O)Cc2cc3c(CN(C)C)c(O)ccc3nc2-1 [Topotecan, reference compound]
- KDMPC overall association constant [6]: 10 M⁻¹
- KDMPG overall association constant [7]: 50 M⁻¹
- % Lactone [8]: approximately 12%
- lactone level at equilibrium relative to 9-aminocamptothecin ([1]; male, human, 1 μM, pH 7.4): 20 fold
- % Lactone ([1]; male, human, 3 h, 1 μM, pH 7.4): approx. 15%
- percentage of lactone at equilibrium [5]: 11.9%

From US7538220B2, “Intermediates in the preparation of homocamptothecin analogs” (University of Pittsburgh - of the Commonwealth System of …, priority 1999, dated 2009)
